Source: US20250064778A1, “GRANULES COMPRISING PROGERININ, AND SACHETS USING SAME” (PRG S&TECH INC., priority 2022, published 2025)

Columns and labels:
[1] = Excipient compatibility of progerinin; assay type: physicochemical; settings: mixed with HPMC E3, TPGS and potassium sorbate 1:10, 40° C./75% RH, 2 weeks
[2] = Stability of spray-dried solid dispersions under storage for 2 weeks; assay type: physicochemical; settings: for Appearance / HPLC results Purity / XRPD: open
[3] = cited from earlier work
progerin = settings: cited from earlier work
[4] = tested on: progeria-induced animal model; settings: cited from earlier work

## CC1(C)Oc2cc3oc(=O)ccc3cc2C[C@@H]1OC/C=C/c1ccccc1 [progerinin, (7S)-(+)-8,8-dimethyl-7-(3-phenylallyloxy)-7,8-dihydro-6H-pyrano[3,2-g]chromen-2-one]
[1]
  compatibility with excipients (effect on the drug): had no effect on the drug
[2]; 25° C./60% RH, after 1 week
  Appearance: White
  HPLC results Purity: 99.85%
  XRPD: Unchanged
[2]; 25° C./60% RH, after 2 weeks
  HPLC results Purity: 99.85%
  XRPD: Unchanged
[2]; 40° C./75% RH, after 1 week
  Appearance: White
  HPLC results Purity: 99.85%
  XRPD: Unchanged
[2]; 40° C./75% RH, after 2 weeks
  HPLC results Purity: 99.85%
  XRPD: Unchanged
[2]; initial
  Initial purity: 99.85%
[3]; BCS criteria
  solubility in aqueous media: low solubility
[3]
  solubility in water: close to zero
progerin
  suppressing progerin expression: excellent effects of suppressing progerin expression
[4]
  survival period: prolonging a survival period
